Among the data in patent US9040547B2, “Pyrrolopyrimidine and purine derivatives” (PFIZER INC., priority 2011, dated 2015) are IC50 values, retold here.

In general, IC50 refers to the point on the concentration scale where inhibition reaches its midpoint.

Common to all, as to format: cell-based
Experiment [1] deals with T1, EGFR L858R+T790M, endogenous (Homo sapiens, UniProt P00533, L858R/T790M).
T1 construct: NCI-H1975 (EGFR L858R+T790M, endogenous); host or cells: NCI-H1975
Put plainly: pEGFR Y1068 ELISA assay, NCI-H1975 cells.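 Note: sandwich ELISA of endogenous phospho-EGFR (Tyr1068) in lysates of treated cells, 11-point 1:3 serial dilution tested in duplicate per plate.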 The conditions noted are these: value marked (H1975): NCI-H1975 cells, 2 hrs compound treatment; read-out: pEGFRY1068 ELISA3T3T790M—L858R IC50 (nM), (H1975). (In general: ELISA stands for enzyme-linked immunosorbent assay.)

Another experiment concerns the target T2, EGFR L858R, endogenous (Homo sapiens, UniProt P00533, L858R).
T2 construct: NCI-H3255 (EGFR L858R, endogenous); endogenous in cells; host or cells: NCI-H3255
Put plainly: pEGFR Y1068 ELISA assay, NCI-H3255 cells. The following applies: value marked (H3255): NCI-H3255 cells, 2 hrs compound treatment; read-out: pEGFRY1068 ELISA3T3 L858R IC50 (nM), (H3255).

Another experiment deals with T3, EGFR Del (PC9) (Homo sapiens, UniProt P00533, DEL746-750).
T3 construct: endogenous in cells; host or cells: PC-9
T3 sequence (P00533 with tags, fused parts or gaps DEL746-750): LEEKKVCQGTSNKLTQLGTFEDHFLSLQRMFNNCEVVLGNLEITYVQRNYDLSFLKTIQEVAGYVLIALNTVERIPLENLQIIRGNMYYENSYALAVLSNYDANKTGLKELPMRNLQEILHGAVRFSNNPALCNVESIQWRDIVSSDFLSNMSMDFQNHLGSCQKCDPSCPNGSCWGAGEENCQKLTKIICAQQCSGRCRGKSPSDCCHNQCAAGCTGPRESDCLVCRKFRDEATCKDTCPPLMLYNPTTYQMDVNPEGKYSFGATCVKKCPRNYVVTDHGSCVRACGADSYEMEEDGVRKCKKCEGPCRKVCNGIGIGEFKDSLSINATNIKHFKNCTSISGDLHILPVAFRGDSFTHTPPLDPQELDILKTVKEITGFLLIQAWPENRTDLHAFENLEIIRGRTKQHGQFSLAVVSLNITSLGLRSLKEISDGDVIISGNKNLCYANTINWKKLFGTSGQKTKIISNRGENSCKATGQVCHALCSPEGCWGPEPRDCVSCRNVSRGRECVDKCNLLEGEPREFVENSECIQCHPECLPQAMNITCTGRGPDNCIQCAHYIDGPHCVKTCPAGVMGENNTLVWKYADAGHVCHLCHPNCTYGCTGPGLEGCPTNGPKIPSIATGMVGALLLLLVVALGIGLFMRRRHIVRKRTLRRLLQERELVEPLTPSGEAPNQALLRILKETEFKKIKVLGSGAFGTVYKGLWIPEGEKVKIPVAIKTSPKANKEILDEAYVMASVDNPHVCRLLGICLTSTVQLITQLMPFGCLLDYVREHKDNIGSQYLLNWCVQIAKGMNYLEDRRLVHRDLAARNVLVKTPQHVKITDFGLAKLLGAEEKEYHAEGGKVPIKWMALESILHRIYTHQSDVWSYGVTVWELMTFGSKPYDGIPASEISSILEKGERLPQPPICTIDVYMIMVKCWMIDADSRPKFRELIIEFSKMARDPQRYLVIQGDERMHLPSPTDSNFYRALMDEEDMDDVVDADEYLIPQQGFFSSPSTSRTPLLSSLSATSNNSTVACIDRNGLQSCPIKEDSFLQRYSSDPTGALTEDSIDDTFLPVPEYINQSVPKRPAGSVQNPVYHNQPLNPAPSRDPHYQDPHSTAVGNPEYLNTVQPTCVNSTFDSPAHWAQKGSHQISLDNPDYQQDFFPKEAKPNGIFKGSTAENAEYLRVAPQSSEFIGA
Put plainly: EGFR ELISA, PC9 Del cells.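 Note: cellular EGFR autophosphorylation at Tyr1068 quantified by sandwich ELISA of cell lysates after 2 h compound exposure at 37 °C, 11-point threefold dilution series.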 The following applies: read-out: EGFR_ELISA9E PC9 Del IC50.

Experiment [2] addresses T4, EGFR wildtype, endogenous (Homo sapiens, UniProt P00533).
T4 construct: A549 (EGFR wildtype, endogenous); host or cells: A549
Put plainly: pEGFR Y1068 ELISA assay, A549 cells.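 Note: sandwich ELISA of phospho-EGFR Tyr1068 in cell lysates, cells exposed to compound for 2 h before EGF stimulation, 11-point threefold dilution series run in duplicate.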 The following applies: full serum media, stimulated 10 min with EGF (40 ng/mL), read-out: pEGFRY1068 ELISAA549 IC50.

Another experiment concerns the target EGFR L858R (Homo sapiens, UniProt P00533, L858R). Put plainly: pEGFR Y1068 ELISA assay, NIH3T3/EGFR_L858R cells.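 Note: sandwich ELISA of phospho-EGFR Tyr1068 in lysates of stably transfected NIH/3T3 pools after 2 h compound exposure at 37 °C, 11-point threefold dilution series run in duplicate.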 The conditions noted are these: 3T3 cell line, 2 hrs compound treatment; read-out: pEGFRY1068 ELISA3T3 L858R IC50.
The test system of the next experiment is NIH3T3/EGFR_L858R. Put plainly: Cell proliferation assay (CellTiter-Glo), NIH3T3/EGFR_L858R. The conditions noted are these: Mus musculus, NIH3T3, 120 h, 3T3 cell line, three to five days of compound treatment, read-out: 3T3 L858R IC50. Here is the method: (§1) Cell proliferation was measured using the CellTiter-Glo® Luminescent Cell Viability Assay. The assay involves the addition of a single reagent (CellTiter-Glo® Reagent) directly to cells cultured in serum-supplemented medium. The assay uses this one-step addition to induce cell lysis and generate a luminescent signal proportional to the amount of ATP present which is directly proportional to the number of metabolically active cells present in culture. The following cell lines were evaluated in this assay: NIH3T3/EGFR_L858R, NIH3T3/EGFR_E746-A750_deletion, NIH3T3/EGFR L858R+T790M, NIH3T3/EGFR_E746-A750_deletion+T790M, PC-9, PC9-DRH, NCI-H1975, and NCI-H3255. NIH/3T3 parental cells, NCI-H1975, and NCI-H3255 were purchased from the American Type Culture Collection (Manassas, Va.), and PC-9 cells were obtained from Japan. All cells were cultured according to recommendations. NIH/3T3 cells were grown in DMEM (Invitrogen, Carlsbad, Calif.) supplemented with 10% newborn calf serum (Invitrogen), and NIH3T3/EGFR mutant cells were grown in complete media with 5 μg/mL puromycin (Invitrogen). PC-9, NCI-H1975, and NCI-H3255 were grown in RPMI (Invitrogen, Carlsbad, Calif.) supplemented with 10% FBS (Sigma, St Louis, Mo.), and PC9-DRH cells were grown in complete media with 2 uM PF-00299804. Plasmids (pLPCX) with various EGFR constructs were made by GenScript (Piscataway, N.J.), and stable pools of NIH/3T3 cells expressing these constructs were made at Pfizer La Jolla. PC9-DRH cells were generated at Pfizer La Jolla by exposing cells to increasing concentrations of PF-00299804. Cells were plated in complete culture media (3000-5000 cells/well, 50 μl/well) on the bottom of white clear-bottom tissue culture treated microtiter plates (#3610, Corning Inc, Corning, N.Y.) and allowed to adhere overnight at 37° C., 5% CO2. The following day, compound dilution plates were prepared in 96 well clear V-bottom 0.5 mL polypropylene block plates (#3956, Corning, Inc). All cell lines were not evaluated for each compound. Each compound evaluated was prepared as a DMSO stock solution (10 mM). Compounds were tested in duplicate on each plate, with an 11-point serial dilution curve (1:3 dilution). Compound treatment (50 μl) was added from the compound dilution plate to the cell plate. The highest compound concentration was 1 or 10 μM (final), with a 0.3% final DMSO (#D-5879, Sigma, St Louis, Mo.) concentration. Plates were then incubated at 37° C., 5% CO2. After three to five days of compound treatment, CellTiter-Glo® Reagent (#G7573, Promega, Madison, Wis.) was prepared in one of two ways. If thawing a frozen aliquot of CellTiter-Glo® Reagent, the aliquot was thawed and equilibrated to room temperature prior to use while keeping it protected from light. Alternatively, new bottles of CellTiter-Glo® Buffer and CellTiter-Glo® Substrate were thawed and equilibrated to room temperature prior to use. CellTiter-Glo® Buffer (100 mL) was transferred into the amber bottle containing CellTiter-Glo® Substrate to reconstitute the lyophilized enzyme/substrate mixture, forming the CellTiter-Glo® Reagent. The reconstituted reagent was mixed by gently inverting the contents to obtain a homogeneous solution, and went into solution easily in less than one minute. Any unused reconstituted CellTiter-Glo® Reagent was immediately aliquoted and frozen at −20° C., protected from light. Cell plates were equilibrated at room temperature for approximately 30 minutes. An equivolume amount of CellTiter-Glo® Reagent (100 μL) was added to each well. Plates were mixed for two minutes on an orbital shaker to induce cell lysis, and then allowed to incubate at room temperature for 10 minutes to stabilize the luminescent signal. Luminescence was recorded using the PerkinElmer EnVision Excite Multilabel Reader used for endpoint reading for Luminescence detection (Waltham, Mass.). Data were analyzed using a four-parameter fit in Microsoft Excel. […]

The test system of experiment [3] is NIH3T3/EGFR_E746-A750_deletion. Put plainly: Cell proliferation assay (CellTiter-Glo), NIH3T3/EGFR_E746-A750_deletion. The following applies: Mus musculus, NIH3T3, 120 h, 3T3 cell line, three to five days of compound treatment, read-out: 3T3 del IC50. Here is the method:
as §1
On the technique in general: Cellular ATP, detected with luciferase, serves as a proxy for viable cell number.

In another experiment the test system is NIH3T3/EGFR L858R+T790M. Put plainly: Cell proliferation assay (CellTiter-Glo), NIH3T3/EGFR L858R+T790M. The following applies: Mus musculus, NIH3T3, 120 h, 3T3 cell line, three to five days of compound treatment, read-out: 3T3 L858R_T790M IC50.
The test system of experiment [4] is NIH3T3/EGFR_E746-A750_deletion+T790M. Put plainly: Cell proliferation assay (CellTiter-Glo), NIH3T3/EGFR_E746-A750_deletion+T790M. The following applies: Mus musculus, NIH3T3, 120 h, 3T3 cell line, three to five days of compound treatment, read-out: 3T3 del_T790M IC50. Here is the method:
as §1

T4 sequence (P00533 25-1210): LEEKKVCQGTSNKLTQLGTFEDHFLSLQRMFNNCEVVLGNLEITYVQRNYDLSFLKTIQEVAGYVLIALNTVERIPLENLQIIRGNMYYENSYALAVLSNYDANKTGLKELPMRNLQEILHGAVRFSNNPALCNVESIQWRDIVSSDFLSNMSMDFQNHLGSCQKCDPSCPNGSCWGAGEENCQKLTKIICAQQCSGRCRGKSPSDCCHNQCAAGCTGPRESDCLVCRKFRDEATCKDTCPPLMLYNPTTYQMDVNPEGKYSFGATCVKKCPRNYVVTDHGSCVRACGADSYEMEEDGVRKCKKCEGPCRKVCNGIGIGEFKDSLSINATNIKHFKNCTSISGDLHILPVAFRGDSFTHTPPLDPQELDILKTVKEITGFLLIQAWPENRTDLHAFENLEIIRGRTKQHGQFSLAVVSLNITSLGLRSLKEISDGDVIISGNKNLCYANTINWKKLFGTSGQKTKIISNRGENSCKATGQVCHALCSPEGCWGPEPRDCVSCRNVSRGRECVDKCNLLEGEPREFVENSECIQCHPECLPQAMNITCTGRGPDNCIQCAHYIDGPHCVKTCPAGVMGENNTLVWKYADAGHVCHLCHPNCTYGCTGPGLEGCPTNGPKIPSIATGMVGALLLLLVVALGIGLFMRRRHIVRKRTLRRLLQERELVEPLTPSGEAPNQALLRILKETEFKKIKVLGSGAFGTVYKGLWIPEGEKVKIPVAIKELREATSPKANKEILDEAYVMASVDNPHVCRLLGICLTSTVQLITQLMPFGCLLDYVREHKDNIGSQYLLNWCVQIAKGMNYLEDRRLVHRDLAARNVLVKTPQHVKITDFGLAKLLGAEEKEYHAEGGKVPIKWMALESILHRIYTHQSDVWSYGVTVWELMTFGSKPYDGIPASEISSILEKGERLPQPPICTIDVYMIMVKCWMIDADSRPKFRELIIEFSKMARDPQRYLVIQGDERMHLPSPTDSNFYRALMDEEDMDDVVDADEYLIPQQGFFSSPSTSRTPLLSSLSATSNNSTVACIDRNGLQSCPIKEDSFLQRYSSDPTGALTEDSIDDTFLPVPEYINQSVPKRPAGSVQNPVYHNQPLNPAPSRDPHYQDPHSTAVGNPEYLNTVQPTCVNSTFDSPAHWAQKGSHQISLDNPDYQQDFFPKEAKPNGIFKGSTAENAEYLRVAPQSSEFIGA
T1 sequence (P00533 25-1210 T790M/L858R): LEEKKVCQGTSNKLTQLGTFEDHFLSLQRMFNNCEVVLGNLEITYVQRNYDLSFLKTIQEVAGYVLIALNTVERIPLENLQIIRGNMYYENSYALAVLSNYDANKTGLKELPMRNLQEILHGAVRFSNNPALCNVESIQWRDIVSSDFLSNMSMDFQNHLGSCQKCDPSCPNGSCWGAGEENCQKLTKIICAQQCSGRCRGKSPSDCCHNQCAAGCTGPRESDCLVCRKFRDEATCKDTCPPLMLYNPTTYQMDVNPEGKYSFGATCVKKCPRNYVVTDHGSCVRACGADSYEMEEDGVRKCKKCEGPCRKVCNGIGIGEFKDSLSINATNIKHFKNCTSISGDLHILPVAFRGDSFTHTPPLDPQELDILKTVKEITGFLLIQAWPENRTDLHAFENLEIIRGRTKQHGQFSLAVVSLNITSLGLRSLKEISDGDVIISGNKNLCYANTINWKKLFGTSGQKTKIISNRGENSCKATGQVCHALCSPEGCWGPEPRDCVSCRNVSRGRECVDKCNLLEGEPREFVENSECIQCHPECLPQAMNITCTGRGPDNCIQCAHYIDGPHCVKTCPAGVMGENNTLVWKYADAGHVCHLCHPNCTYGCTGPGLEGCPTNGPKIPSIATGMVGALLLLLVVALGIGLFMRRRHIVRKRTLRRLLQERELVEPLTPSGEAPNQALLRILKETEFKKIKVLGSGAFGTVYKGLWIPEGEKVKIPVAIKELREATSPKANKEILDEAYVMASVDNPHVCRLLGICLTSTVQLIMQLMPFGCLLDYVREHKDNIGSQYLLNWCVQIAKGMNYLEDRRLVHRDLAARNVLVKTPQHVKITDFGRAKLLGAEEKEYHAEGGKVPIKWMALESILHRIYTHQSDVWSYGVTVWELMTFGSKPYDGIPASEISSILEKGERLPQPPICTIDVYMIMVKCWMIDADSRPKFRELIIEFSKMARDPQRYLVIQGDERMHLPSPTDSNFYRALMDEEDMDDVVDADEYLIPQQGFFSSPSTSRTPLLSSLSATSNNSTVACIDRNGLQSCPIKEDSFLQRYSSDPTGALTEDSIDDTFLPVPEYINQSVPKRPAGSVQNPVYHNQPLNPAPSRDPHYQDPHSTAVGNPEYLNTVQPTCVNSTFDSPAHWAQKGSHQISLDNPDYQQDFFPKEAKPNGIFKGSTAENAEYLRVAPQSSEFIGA
T2 sequence (P00533 25-1210 L858R): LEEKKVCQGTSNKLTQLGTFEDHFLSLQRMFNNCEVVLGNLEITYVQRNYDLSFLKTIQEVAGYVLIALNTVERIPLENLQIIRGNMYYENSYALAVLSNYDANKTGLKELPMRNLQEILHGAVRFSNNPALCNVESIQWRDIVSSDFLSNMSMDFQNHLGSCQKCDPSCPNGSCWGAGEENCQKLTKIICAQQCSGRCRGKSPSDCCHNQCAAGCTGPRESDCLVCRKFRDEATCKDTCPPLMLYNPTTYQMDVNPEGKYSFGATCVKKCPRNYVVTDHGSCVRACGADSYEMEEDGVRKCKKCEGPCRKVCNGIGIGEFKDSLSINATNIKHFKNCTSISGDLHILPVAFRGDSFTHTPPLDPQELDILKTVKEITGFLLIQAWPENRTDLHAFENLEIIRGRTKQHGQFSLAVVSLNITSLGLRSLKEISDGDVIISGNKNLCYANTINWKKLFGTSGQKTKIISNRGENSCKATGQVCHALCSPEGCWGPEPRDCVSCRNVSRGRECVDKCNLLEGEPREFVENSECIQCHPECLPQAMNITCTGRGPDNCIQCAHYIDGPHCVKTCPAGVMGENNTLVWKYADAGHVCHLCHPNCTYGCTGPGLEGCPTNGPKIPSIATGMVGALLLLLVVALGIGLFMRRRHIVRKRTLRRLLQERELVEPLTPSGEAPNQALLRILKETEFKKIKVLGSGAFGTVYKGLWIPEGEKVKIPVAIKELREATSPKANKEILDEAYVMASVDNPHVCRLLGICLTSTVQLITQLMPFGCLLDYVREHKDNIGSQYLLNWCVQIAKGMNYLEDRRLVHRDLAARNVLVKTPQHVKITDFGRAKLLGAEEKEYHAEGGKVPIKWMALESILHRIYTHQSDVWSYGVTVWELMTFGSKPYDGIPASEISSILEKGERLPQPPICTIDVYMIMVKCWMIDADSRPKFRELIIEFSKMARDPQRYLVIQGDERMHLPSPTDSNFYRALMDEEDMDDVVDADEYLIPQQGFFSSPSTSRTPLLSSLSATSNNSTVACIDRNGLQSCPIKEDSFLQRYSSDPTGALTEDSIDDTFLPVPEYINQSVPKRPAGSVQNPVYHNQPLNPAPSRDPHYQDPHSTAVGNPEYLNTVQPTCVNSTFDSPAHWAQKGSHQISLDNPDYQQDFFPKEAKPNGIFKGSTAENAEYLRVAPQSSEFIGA

For `C=CC(=O)N1C[C@@H]2CN(c3nc(Nc4cnn(C)c4)nc4[nH]cc(Cl)c34)C[C@]2(OC)C1` (single isomer, unassigned) [Example 88], the IC50 was found to be 34 nM in experiment [1]; 41 nM on EGFR L858R, endogenous; 630 nM at EGFR Del (PC9).

On to `C=CC(=O)N1C[C@H](COc2nc(Nc3cnn(CC(C)O)c3)nc3[nH]cc(Cl)c23)[C@@H](OC)C1` (single isomer, unassigned) [Example 100], for which the IC50 in experiment [1] was 153 nM; at EGFR L858R, endogenous, 101 nM; in experiment [2], more than 10000 nM; on EGFR Del (PC9), 4250 nM.

In the case of `C=CC(=O)N1CCOC2(CCN(c3nc(Nc4cnn(C)c4)nc4[nH]cc(Cl)c34)C2)C1` (single isomer, unassigned) [Example 112], the IC50 was 63 nM in experiment [1]; 241 nM on EGFR L858R, endogenous; more than 10000 nM in experiment [2].

`C=CC(=O)N[C@@H]1CCCN(c2nc(Nc3cnn(C)c3)nc3[nH]cc(Cl)c23)C1` [Example 11, N-[(3R)-1-{5-chloro-2-[(1-methyl-1H-pyrazol-4-yl)amino]-7H-pyrrolo[2,3-d]pyrimidin-4-yl}piperidin-3-yl]prop-2-enamide]: the IC50 in experiment [1] is 525 nM; at EGFR L858R it was 8860 nM; in experiment [2], more than 10000 nM; in the experiment on NIH3T3/EGFR_L858R, more than 1000 nM; in [3] it was more than 1000 nM; in the experiment with NIH3T3/EGFR L858R+T790M it was 100 to 1000 nM. Moreover, the 50% inhibitory concentration (IC50) in [4] lay within 100 to 1000 nM.

For `C=CC(=O)N[C@H]1C[C@H](Oc2nc(Nc3cnn(C)c3)nc3[nH]cc(-c4ccccn4)c23)C1` [Example 12, N-[trans-3-({2-[(1-methyl-1H-pyrazol-4-yl)amino]-5-(pyridin-2-yl)-7H-pyrrolo[2,3-d]pyrimidin-4-yl}oxy)cyclobutyl]prop-2-enamide], the IC50 in experiment [1] was 689 nM; at EGFR L858R, endogenous, 782 nM; in experiment [2], more than 10000 nM; at EGFR Del (PC9), 2780 nM.

Turning to `C=CC(=O)N[C@H]1CC[C@@H](Oc2nc(Nc3cnn(C)c3)nc3[nH]cc(Cl)c23)C1` [Example 77], the IC50 in experiment [1] was 301 nM; on EGFR L858R, 5190 nM; in [2], more than 10000 nM; in the experiment on NIH3T3/EGFR_L858R, more than 1000 nM; in experiment [3], more than 1000 nM; with NIH3T3/EGFR L858R+T790M, 100 to 1000 nM. For the same compound, the IC50 in experiment [4] lay in the range of 100 to 1000 nM.

As for `C=CC(=O)N1CC(Nc2nc(Nc3cnn(C)c3)nc3[nH]cc(Cl)c23)C1` [Example 79], the half-inhibitory concentration (IC50) in [1] was 136 nM; at EGFR L858R, endogenous, 776 nM; in experiment [2] it was more than 10000 nM; on EGFR Del (PC9), more than 6760 nM.

Regarding `C=CC(=O)N(C)[C@H]1C[C@H](Oc2nc(Nc3cn(C)nc3C#N)nc3[nH]cc(Cl)c23)C1` [Example 80], the 50% inhibitory concentration (IC50) in [1] was 25 nM; at EGFR L858R, endogenous, 273 nM; in experiment [2], more than 10000 nM; at EGFR Del (PC9), 891 nM.

Turning to `C=CC(=O)N1C[C@H](Nc2nc(Nc3cnn(C)c3)nc3[nH]cc(Cl)c23)[C@H](n2ccnn2)C1` [Example 82], the concentration for half-maximal inhibition (IC50) in [1] is 638 nM; on EGFR L858R, endogenous it was 973 nM; in experiment [2] it was more than 10000 nM; at EGFR Del (PC9), more than 10000 nM.

Turning to `C=CC(=O)N1C[C@@H]2CN(c3nc(Nc4cnn(C)c4)nc4[nH]cc(Cl)c34)C[C@]2(O)C1` [Example 84], the IC50 in experiment [1] came out at 175 nM; on EGFR L858R, endogenous, 1100 nM; on EGFR Del (PC9) it was 5240 nM.

As for `C=CC(=O)N(C)[C@H]1C[C@H](Oc2nc(Nc3cnn(C)c3)nc3[nH]cc(-c4ccn(C)n4)c23)C1` [Example 86], the IC50 in experiment [1] was 266 nM; at EGFR L858R, endogenous it was 477 nM; in [2] it was more than 10000 nM; at EGFR Del (PC9), 2340 nM.

For the compound `C=CC(=O)N1C[C@H](COc2nc(Nc3cnn(CC#N)c3)nc3[nH]cc(Cl)c23)[C@@H](OC)C1` [Example 93], the IC50 in [1] was found to be 31 nM; at EGFR L858R, endogenous it was 26 nM; on EGFR Del (PC9), 383 nM.

In the case of `C=CC(=O)N(C)[C@@H]1CCCN(c2nc(Nc3cnn(C)c3)nc3[nH]cc(Cl)c23)C1` [Example 94], the 50% inhibitory concentration (IC50) turned out to be 385 nM in experiment [1]; 608 nM at EGFR L858R, endogenous; 4430 nM on EGFR Del (PC9).
